System: genes with lengthy repetitive nucleotide sequences (Q81-GFP, mutant HTT)
Assay: RT-qPCR of (CAG)n-GFP / HTT mRNA with SUPT4H siRNA knockdown plus tropolone
Type: cell-based
Conditions: together with SUPT4H siRNA; only in the genes with lengthy repetitive nucleotide sequences
Procedure: ST14A, Hdh^Q7/Q7 and Hdh^Q111/Q111 were maintained in DMEM (HyClone) supplemented with 15% fetal bovine serum at 33° C. with 5% CO2. ST14A^tet is a genetic engineered stable line, which integrated pTet-Off construct in the genome of ST14A cells and could trigger the expression of pTRE2-(CAG)n-eGFP plasmid in the absence of tetracycline. Lipofectamine 2000 (Invitrogen) transfection reagent was used to deliver siRNA or together with pTRE2-(CAG)n-eGFP into cells. 100 nM of SUPT4H siRNA (DHARMACON, ON-TARGET plus SMART pool, L-048866-01) and (DHARMACON, J-086342-10, 5′-[…]-3′ (SEQ ID NO: 1) and 5′-[…]-(SEQ ID NO: 2)) were used to knock-down SUPT4H expression in mice and rat cells, respectively.
For mammalian cells, total RNA was isolated using TRIzol reagent as per manufacturer's instruction (Invitrogen). […] The amount of cDNAs were quantified by StepOnePlus Real-Time qPCR system (Applied Biosystems) and analyzed by the Quantitative-Comparative CT (AACT) program. Rat SUPT4H, eGFP, mouse SUPT4H, and Mouse HTT were measured using corresponding primer sets as indicated in TABLE 3. snRNA U6 was included as a loading control. […]
Please refer to FIG. 6. […] A relative high signal of R-loops was detected in (CAG)7-eGFP, but this signal is not increased by tropolone. […] RNA was extracted and analyzed by real-time RT-qPCR to measure the quantity of (CAG)n-GFP, SUPT4H and snRNA U6. […]

O=c1cccccc1O [Tropolone]
level of transcriptional reduction by SUPT4H siRNA knockdown upon tropolone treatment: further increased

From US11891601B2, “Method to enhance the transcription regulation of SUPT4H on genes containing repetitive nucleotide sequences” (National Yang-Ming University, priority 2018, dated 2024)
